Data on ten compounds can be found in paper PMC8138313, “Identification, Selection and Immune Assessment of Liver Stage CD8 T Cell Epitopes From Plasmodium falciparum” (Frontiers in Immunology, 2021).

Broadly, the IC50 is the concentration at which inhibition is half-maximal. Read a low IC50 as higher potency.

Where a SMILES comes first, the peptide text is derived from it.

Holding throughout (assay): HLA class I binding assay (cell-free competition, fluorescence polarization)
For experiment [1], the target named is HLA B*4402 (Homo sapiens, UniProt P01889, A223V/A65T/A93T/A95T/D201E/D98Y/E176V/E187L/E204Q/E69K/G107R/H137Y/K202T/L105A/L119I/N104T/N87E/Q56L/Q94N/R106L/R155S/R180D/S101N/S121R/S35A/S48T/T118I/V36M/W191S/Y140D/Y91S).
The target of experiment [2] is HLA A*0201 (Homo sapiens, UniProt P04439, D140Y/D185E/D98H/E176V/E277Q/G131W/G231S/I119V/I121R/I166T/I218V/L300P/L318F/N151K/N90K/P208A/P217A/Q86G/Q94H/R138H/R169H/T345S).
In experiment [3] the target is HLA A*0301 (Homo sapiens, UniProt P04439).

As for `CC[C@H](C)[C@H](NC(=O)CNC(=O)[C@H](CO)NC(=O)[C@H](CC(N)=O)NC(=O)[C@H](CC(=O)O)NC(=O)[C@@H](N)Cc1ccccc1)C(=O)N[C@@H](CO)C(=O)N[C@@H](CC(C)C)C(=O)N[C@@H](CC(C)C)C(=O)O` (H-FDNSGISLL-OH), the IC50 is over 1000 µM in experiment [1] and 229 µM in experiment [2].

Consider `CC[C@H](C)[C@H](NC(=O)[C@H](Cc1ccccc1)NC(=O)[C@H](CCC(=O)O)NC(=O)[C@@H](NC(=O)[C@H](CC(=O)O)NC(=O)[C@H](CCC(=O)O)NC(=O)[C@H](CC(N)=O)NC(=O)[C@H](CCC(=O)O)NC(=O)[C@@H](N)CCSC)C(C)C)C(=O)O` (H-MENEDVEFI-OH), for which, in experiment [1], the IC50 came to 36.9 µM.

For the compound `CC[C@H](C)[C@H](NC(=O)[C@H](CCC(=O)O)NC(=O)[C@H](CCC(=O)O)NC(=O)[C@@H](N)CC(N)=O)C(=O)N[C@H](C(=O)N[C@@H](CC(=O)O)C(=O)N[C@@H](CC(C)C)C(=O)N[C@@H](CC(C)C)C(=O)N[C@@H](CC(N)=O)C(=O)N[C@@H](CC(C)C)C(=O)O)[C@@H](C)CC` (H-NEEIIDLLNL-OH), in experiment [1], the 50% inhibitory concentration (IC50) turned out to be 433 µM.

Consider `C[C@@H](O)[C@H](NC(=O)[C@H](CC(N)=O)NC(=O)[C@H](CC(N)=O)NC(=O)[C@H](CCC(=O)O)NC(=O)[C@@H](N)CC(N)=O)C(=O)N[C@H](C(=O)N[C@@H](Cc1ccc(O)cc1)C(=O)N[C@@H](CCC(N)=O)C(=O)N[C@@H](Cc1ccc(O)cc1)C(=O)O)[C@@H](C)O` (H-NENNTTYQY-OH), for which the IC50 in experiment [1] is 18.4 µM.

For the compound `CC(C)C[C@H](NC(=O)[C@H](Cc1ccccc1)NC(=O)[C@H](CO)NC(=O)[C@H](Cc1ccccc1)NC(=O)[C@H](CS)NC(=O)[C@H](Cc1ccccc1)NC(=O)[C@H](CC(C)C)NC(=O)[C@H](CC(N)=O)NC(=O)[C@H](CC(C)C)NC(=O)[C@@H](N)CCCNC(=N)N)C(=O)O` (H-RLNLFCFSFL-OH), the results for the 50% inhibitory concentration (IC50) in experiment [3], in experiment [1] and in experiment [2] were 6.12 µM, 421 µM and 161 µM, respectively.

In experiment [1], `C[C@@H](O)[C@H](NC(=O)[C@H](CC(N)=O)NC(=O)[C@H](Cc1ccc(O)cc1)NC(=O)[C@@H](NC(=O)[C@H](CO)NC(=O)[C@@H](NC(=O)[C@H](CO)NC(=O)[C@H](CCC(=O)O)NC(=O)[C@@H](N)CO)[C@@H](C)O)[C@@H](C)O)C(=O)O` (H-SESTSTYNT-OH) yielded an IC50 of 103 µM.

`CC[C@H](C)[C@H](NC(=O)[C@H](CC(C)C)NC(=O)[C@@H](NC(=O)[C@@H](N)CO)[C@@H](C)CC)C(=O)N[C@@H](CO)C(=O)N[C@@H](CCCNC(=N)N)C(=O)N[C@@H](CC(C)C)C(=O)N[C@H](C(=O)N[C@@H](CC(C)C)C(=O)O)[C@@H](C)O` (H-SILISRLTL-OH; N-terminus assumed) yielded an IC50 in experiment [1] of over 1000 µM.

In turn, `CC(C)C[C@H](NC(=O)[C@H](Cc1ccccc1)NC(=O)[C@@H]1CCCN1C(=O)[C@H](Cc1c[nH]cn1)NC(=O)[C@H](CCCCN)NC(=O)[C@@H](N)CO)C(=O)N[C@@H](CCCCN)C(=O)N[C@@H](CO)C(=O)NCC(=O)N[C@@H](Cc1ccccc1)C(=O)O` (H-SKHPFLKSGF-OH; N-terminus assumed) showed an IC50 in experiment [1] of over 1000 µM.

Compound `CSCC[C@H](NC(=O)[C@H](CC(N)=O)NC(=O)[C@H](CCCCN)NC(=O)[C@H](CC(N)=O)NC(=O)[C@H](CCCCN)NC(=O)[C@H](Cc1ccccc1)NC(=O)[C@H](Cc1ccc(O)cc1)NC(=O)[C@H](CCC(=O)O)NC(=O)[C@@H](N)[C@@H](C)O)C(=O)O` (H-TEYFKNKNM-OH) registered an IC50 in experiment [1] of 31.4 µM.

As for `CC[C@H](C)[C@H](NC(=O)[C@H](CCCCN)NC(=O)CNC(=O)CNC(=O)[C@H](CC(C)C)NC(=O)[C@H](CCC(N)=O)NC(=O)[C@H](CO)NC(=O)[C@H](CCC(=O)O)NC(=O)[C@@H](N)Cc1ccc(O)cc1)C(=O)O` (H-YESQLGGKI-OH), the IC50 in experiment [1] stood at 66.3 µM.
